Results on 1 substance are retold here after patent US20060127980A1, “Human excitatory amino acid transporter-2 gene promoter and uses thereof” (priority 2003, published 2006).

The subject of one experiment is hEAAT2 mRNA. Kind of experiment: Northern blot of hEAAT2 mRNA in PHFA treated with modulators. The class given is cell-based, human. The method, then: (§1) FIG. 4A-D. Effect of modulators of hEAAT2 activity on hEAAT2 expression and hEAAT2 promoter activity in PHFA. A. A Northern analysis of hEAAT2 and GAPDH mRNA expression following treatment with EGF (30 ng/ml), TGF-α (30 ng/ml), dbcAMP (200 μM, bromo-cAMP (100 μM) or TNF-α (200 U/ml) for 7 days. B. Nuclear run-on assays determining the relative rates of hEAAT2 and GAPDH transcription as a function of 7-day treatment with the same concentrations of the indicated agents. C. A time course of mRNA expression of hEAAT2 and GAPDH following treatment with EGF, bromo-cAMP or TNF-α (same concentrations as in A.). D. Fold luciferase activity in PHFA transfected with flhEAAT2Prom-luc or various deletion mutants of hEAAT2 and non-transfected controls treated with the indicated compounds for four days.
(§2) Northern and Western Blotting Assays. Total cellular RNA was isolated by the guanidinium/phenol extraction method and Northern blotting was performed as described (Huang et al., 2001, Oncogene 20(48):7051-7063; Su et al., 2000, Oncogene 19(30):3411-3421; Su et al., 2001, Nucleic Acids Res 29(8):1661-1671). Western blotting assays were performed as described (Su et al., 1998, Proc Natl Acad Sci USA 95(24):14400-14405; Su et al., 2002, Oncogene 21(22):3592-602).
Positive and Negative Regulation of hEAAT2 Transcription, Promoter Activity and mRNA Levels in PHFA. Several enhancers of GLT-1 expression in rat astrocytes have been identified, including epidermal growth factor (EGF), transforming growth factor-α (TGF-α) and dibutyryl cyclic AMP (dbcAMP) (Swanson et al., 1997, J Neurosci 17(3):932-940; Zelenaia et al., 2000, Mol Pharmacol 57(4):667-678). Based on these considerations, experiments were performed to determine if these agents similarly modify human hEAAT2 expression in PHFA. Consistent with previous observations in rat astrocytes, 7-day treatment with EGF, TGF-α, and two analogs of cAMP, dbcAMP and bromo-cAMP, stimulated hEAAT2 mRNA expression in PHFA, whereas TNF-α decreased expression (FIG. 4B). […] In contrast, TNF-α decreased expression by 48 h (FIG. 4C).

A further experiment concerns hEAAT2 expression. Kind of experiment: hEAAT2 expression in PHFA, readout not specified. The class given is cell-based, human.
A further experiment concerns hEAAT2 transcription. The experiment in a line: Nuclear run-on assay of hEAAT2 transcription in PHFA. Conditions: 7-day treatment. The class given is cell-based, human. The method, then:
as §1
Primer Extension Analysis and Nuclear Run-on Assays. Primer extension assays were performed as described (Su et al., 2000, Oncogene 19(30):3411-3421). A primer with the sequence 5′-[…]-3′ (SEQ ID NO:6) complementary to the 5′ UTR of the hEAAT2 cDNA was used for this assay. Nuclear run-on assays were performed as described (Su et al., 1997, Proc Natl Acad Sci USA 94(17):9125-9130).
To examine whether stimulation of hEAAT2 expression involves transcriptional changes, nuclear run-on assays were performed.

A further experiment concerns hEAAT2 protein. Kind of experiment: Western blot of EAAT2 protein in PHFA. The format is cell-based, human. The method, then: FIG. 5A-E. Effect of pharmacological inhibitors on hEAAT2 promoter activity, and mRNA and protein expression in PHFA following various treatment protocols. A. hEAAT2 promoter activity in PHFA, either untreated (−) or treated with EGF (30 ng/ml), in the absence (−) or presence (+) of KT5720 (5 μM), AG1478 (1 μM), PDTC (100 μM), wortmannin (WRT) (100 nM) or PD98049 (PD) (50 μM). B. hEAAT2 promoter activity in PHFA, either untreated (−) or treated with bromo-cAMP (250 μM) in the absence (−) or presence (+) of KT5720 (5 μM), AG1478 (1 μM), PDTC (100 μM), wortmannin (WRT) (100 nM) or PD98049 (PD) (50 μM). C. hEAAT2 promoter activity in PHFA, either untreated (−) or treated with TNF-α (200 U/ml), in the absence (−) or presence (+) of KT5720 (5 μM), AG1478 (1 μM), PDTC (100 μM), wortmannin (WRT) (100 nM) or PD98049 (PD) (50 μM). D. The effect of the various treatment protocols on hEAAT2 and GAPDH mRNA levels. Upper panel presents relative hEAAT2 RNA expression versus GAPDH expression relative to control untreated or treated samples based on scanning of autoradiograms. Lower panel, actual Northern blots. E. The effect of the various treatment protocols on EAAT2 and ACTIN protein levels. Upper panel presents relative EAAT2 protein expression versus ACTIN expression relative to control untreated or treated samples based on scanning of autoradiograms. Individual experiments were performed 3 times using triplicate samples and S.D. from the mean is presented.
as §2

Another experiment relates to glutamate uptake by PHFA. Particulars: Fine et al., 1996; cited from earlier work.
A further experiment has as its system hEAAT2 promoter. Kind of experiment: flhEAAT2Prom-luc and deletion mutant luciferase reporter assay in PHFA treated with modulators. The class given is cell-based, human. The method, then:
as §1
Construction of hEAAT2 Promoter Deletion Mutants and Performance of the Luciferase Assays. 5′-deletion mutants of the hEAAT2 promoter were made with exonuclease III digestion using the Erase-A-Base System (Promega) as described for the PEG-3 promoter (Su et al., 2000, Oncogene 19(30):3411-3421). The flhEAAT2Prom-luc and flhEAAT2Prom-luc deletion mutants were cloned into the pGL3-basic luciferase reporter vector (Promega) and luciferase reporter assays were performed as described (Su et al., 2000, Oncogene 19(30):3411-3421; Su et al., 2001, Nucleic Acids Res 29(8):1661-1671), except that instead of using lipofectamine, which was toxic to PHFA, the calcium phosphate precipitation transfection technique was used (Babiss et al., 1986, Proc Natl Acad Sci USA 83(7):2167-2171).
Preferential Expression of the hEAAT2 Promoter in PHFA and Deletion Analysis of the hEAAT2 Promoter. hEAAT2 is expressed in brain-derived cells, mainly astrocytes (Tanaka et al., 1997, Science 276(5319):1699-1702; Anderson et al., 2000, Glia 32(1):1-14). Experiments were performed to confirm hEAAT2 promoter activity in normal human astrocytes and to determine expression levels in other cell types (FIG. 2A). Primary early passage and established human normal and tumor cell lines were co-transfected with a putative full-length ˜2.5 kb hEAAT2 promoter, a SacII fragment extending from bp −2426 to bp +44, was cloned into the pGL3-basic vector (Promega), where it drove expression of the firefly luciferase (luc) gene, and a pSV-β-galactosidase expression plasmid. Relative fold expression of a full length hEAAT2 promoter-luciferase (flhEAAT2Prom-luc) construct was determined as described (Su et al., 2000, Oncogene 19(30):3411-3421; Su et al., 2001, Nucleic Acids Res 29(8):1661-1671), and activity versus transfection with a pSV-β-galactosidase plasmid was calculated as described (Su et al., 2000, Oncogene 19(30):3411-3421; Su et al., 2001, Nucleic Acids Res 29(8):1661-1671) to equalize for differences in transfection efficiency.
To examine further the relationship between hEAAT2 and treatment with the various glutamate transporter modulators, transient transfection assays were performed in PHFA using the flhEAAT2Prom-luc constructs and various deletions thereof (FIG. 4D). […] In the case of dbcAMP, promoter activity was enhanced by ˜3-fold.

In the case of TNF-α, the “hEAAT2 mRNA expression” value with hEAAT2 mRNA (7-day treatment, EGF 30 ng/ml, TGF-α 30 ng/ml, dbcAMP 200 μM, bromo-cAMP 100 μM, TNF-α 200 U/ml) is “decreased”. Also, the “time by which hEAAT2 mRNA expression was changed” value with hEAAT2 mRNA (time course, bromo-cAMP enhanced, TNF-α decreased) is at most 48 h. The hEAAT2 expression entry in the experiment on hEAAT2 expression is “decreased”. Moreover, the “relative rate of transcription of hEAAT2 RNA compared with GAPDH” value in the experiment on hEAAT2 transcription is recorded as “decreased”. Further, the hEAAT2 protein levels entry with hEAAT2 protein is given as “decreased”. Besides, the “glutamate uptake by PHFA” value in the experiment on glutamate uptake by PHFA is given as “inhibits”. The “hEAAT2 promoter activity (in words)” value with hEAAT2 promoter is “inhibited”.
